{"source": "ChEMBL document CHEMBL3272044", "about": "“Cholinergic compounds. 9. Cyclohexane analogues of deoxamuscarine and derivatives” (J Med Chem, 1977)", "data": [{"species_on_record": "Cavia porcellus", "assay": "Activity at muscarinic receptor in guinea pig terminal ileum assessed as compound required for 50% effect relative to acetylcholine", "assay_type": "tissue-based", "values": [{"molecule": "C[N+](C)(C)C[C@@H]1CC=CCC1", "Ratio": 269}, {"molecule": "C[N+](C)(C)C[C@H]1CCC(=O)C1", "Ratio": 50}, {"molecule": "C[N+](C)(C)C[C@H]1CCCC(=O)C1", "Ratio": 507}, {"molecule": "C[C@H]1C[C@H](C[N+](C)(C)C)C[C@H]1O", "Ratio": 454}, {"molecule": "C[N+](C)(C)CC1CCCC1", "Ratio": 16}, {"molecule": "C[C@@H]1C[C@H](C[N+](C)(C)C)C[C@H]1O", "Ratio": 9.8}, {"molecule": "C[N+](C)(C)C[C@H]1CC[C@@H](O)C1", "Ratio": 3590}, {"molecule": "C[N+](C)(C)C[C@H]1CC[C@H](O)C1", "Ratio": 221}, {"molecule": "CC1=CC[C@@H](C[N+](C)(C)C)C1", "Ratio": 30}, {"molecule": "C[C@@H]1C[C@H](C[N+](C)(C)C)C[C@@H]1O", "Ratio": 500}, {"molecule": "C[N+](C)(C)CC1CCCCC1", "Ratio": 203}, {"molecule": "C[C@H]1CC[C@@H](C[N+](C)(C)C)C1", "Ratio": 100}, {"molecule": "C[N+](C)(C)CC1CC=CC1", "Ratio": 11}, {"molecule": "CC1C[C@H](C[N+](C)(C)C)CC1=O", "note": "(some centres not stated)", "Ratio": 0.5}, {"molecule": "C[N+](C)(C)C[C@H]1CCC[C@H](O)C1", "note": "(relative stereo)", "Ratio": 2900}, {"molecule": "C[C@H]1C[C@H](C[N+](C)(C)C)C[C@@H]1O", "Ratio": 100}, {"molecule": "C[N+](C)(C)C[C@H]1CCC[C@@H](O)C1", "note": "(relative stereo)", "Ratio": "> 10000"}]}]}
